The source of these data is patent US11384083B2, “Substituted spiro[cyclopropane-1,5′-pyrrolo[2,3-d]pyrimidin]-6′(7′h)-ones as CDK2 inhibitors” (Incyte Corporation, priority 2019, dated 2022).

The assay has as its target CDK2/Cyclin E1 (Homo sapiens (Human), UniProt P24941). The assay can be described thus: CDK2/Cyclin E1 HTRF enzyme activity assay. The note with it: 1 mM ATP. In kind it is biochemical. The procedure: Example A. CDK2/Cyclin E1 HTRF Enzyme Activity Assay
CDK2/Cyclin E1 enzyme activity assays utilized full-length human CDK2 co-expressed as N-terminal GST-tagged protein with FLAG-Cyclin E1 in a baculovirus expression system (Carna Product Number 04-165). Assays were conducted in white 384-well polystyrene plates in a final reaction volume of 8 μL. CDK2/Cyclin E1 (0.25 nM) was incubated with compounds (40 nL serially diluted in DMSO) in the presence of ATP (50 μM or 1 mM) and 50 nM ULight™-labeled eIF4E-binding protein 1 (THR37/46) peptide (PerkinElmer) in assay buffer (containing 50 mM HEPES pH 7.5, 1 mM EGTA, 10 mM MgCl2, 2 mM DTT, 0.05 mg/mL BSA, and 0.01% Tween 20) for 60 minutes at room temperature. The reactions were stopped by the addition of EDTA and Europium-labeled anti-phospho-4E-BP1 antibody (PerkinElmer), for a final concentration of 15 mM and 1.5 nM, respectively. HTRF signals were read after 1 hour at room temperature on a PHERAstar FS plate reader (BMG Labtech). Data were analyzed with IDBS XLFit and GraphPad Prism 5.0 software using a three or four parameter dose response curve to determine IC50 for each compound.
Consider `CC1CCCC1N1C(=O)C2(CC2)c2cnc(NC3CCN(S(C)(=O)=O)CC3)nc21` (stereo not shown) [Example 8, 7′-(2-Methylcyclopentyl)-2′-((1-(methylsulfonyl)piperidin-4-yl)amino)spiro[cyclopropane-1,5′-pyrrolo[2,3-d]pyrimidin]-6′(7′H)-one], for which the concentration for half-maximal inhibition (IC50) is at most 50 nM.

`C[C@@]1(O)CCC[C@H]1N1C(=O)C2(CC2)c2cnc(NC3CCN(S(=O)(=O)c4ncc[nH]4)CC3)nc21` (relative stereo) [Example 17, 2′-((1-((1H-imidazol-2-yl)sulfonyl)piperidin-4-yl)amino)-7′-((trans)-2-hydroxy-2-methylcyclopentyl)spiro[cyclopropane-1,5′-pyrrolo[2,3-d]pyrimidin]-6′(7′H)-one] gave an IC50 of at most 50 nM.

In the case of `O=C1N(C2CCCC2)c2nc(NC3CCN(S(=O)(=O)C4CC4)CC3)ncc2C12CC2` [Example 3, 7′-Cyclopentyl-2′-((1-(cyclopropylsulfonyl)piperidin-4-yl)amino)spiro[cyclopropane-1,5′-pyrrolo[2,3-d]pyrimidin]-6′(7′H)-one], the IC50 is at most 50 nM.

In turn, `Cn1cc(S(=O)(=O)N2CCC(Nc3ncc4c(n3)N(C3CCCC3)C(=O)C43CC3)CC2)cn1` [Example 7, 7′-Cyclopentyl-2′-((1-((1-methyl-1H-pyrazol-4-yl)sulfonyl)piperidin-4-yl)amino)spiro[cyclopropane-1,5′-pyrrolo[2,3-d]pyrimidin]-6′(7′H)-one] showed an IC50 of at most 50 nM.

On to `CCC(C(F)F)N1C(=O)C2(CC2)c2cnc(NC3CCN(S(C)(=O)=O)CC3)nc21` (racemic) [Example 10, 7′-(1,1-difluorobutan-2-yl)-2′-((1-(methylsulfonyl)piperidin-4-yl)amino)spiro[cyclopropane-1,5′-pyrrolo[2,3-d]pyrimidin]-6′(7′H)-one], for which the IC50 is at most 50 nM.

`CCN1CC(n2cc(S(=O)(=O)N3CCC(Nc4ncc5c(n4)N([C@@H](C)C4CC4)C(=O)C54CC4)CC3)cn2)C1` [Example 16, (S)-7′-(1-cyclopropylethyl)-2′-((1-((1-(1-ethylazetidin-3-yl)-1H-pyrazol-4-yl)sulfonyl)piperidin-4-yl)amino)spiro[cyclopropane-1,5′-pyrrolo[2,3-d]pyrimidin]-6′(7′H)-one]: the concentration for half-maximal inhibition (IC50) was at most 50 nM.

The molecule `O=C1N(C2CCCC2)c2nc(NC3CCN(S(=O)(=O)c4cccnc4)CC3)ncc2C12CC2` [Example 5, 7′-Cyclopentyl-2′-((1-(pyridin-3-ylsulfonyl)piperidin-4-yl)amino)spiro[cyclopropane-1,5′-pyrrolo[2,3-d]pyrimidin]-6′(7′H)-one] displayed a half-maximal inhibitory concentration (IC50) of at most 50 nM.

Turning to `O=C1N([C@@H]2CCC[C@@H](O)C2)c2nc(NC3CCN(S(=O)(=O)c4cccc(N5CCC5)n4)CC3)ncc2C12CC2` [Example 13, 2′-((1-((6-(azetidin-1-yl)pyridin-2-yl)sulfonyl)piperidin-4-yl)amino)-7′-((1R,3R)-3-hydroxycyclohexyl)spiro[cyclopropane-1,5′-pyrrolo[2,3-d]pyrimidin]-6′(7′H)-one], the IC50 was at most 50 nM.

`C[C@@H](C1CC1)N1C(=O)C2(CC2)c2cnc(NC3CCN(S(=O)(=O)c4ccc(=O)[nH]c4)CC3)nc21` [Example 15, (S)-7′-(1-cyclopropylethyl)-2′-((1-((6-oxo-1,6-dihydropyridin-3-yl)sulfonyl)piperidin-4-yl)amino)spiro[cyclopropane-1,5′-pyrrolo[2,3-d]pyrimidin]-6′(7′H)-one] showed a half-maximal inhibitory concentration (IC50) of at most 50 nM.

`Cn1cc(S(=O)(=O)N2CCC(Nc3ncc4c(n3)N([C@@H]3CCC[C@@H](O)C3)C(=O)C43CC3)CC2)cn1` [Example 12, 7′-((1R,3R)-3-hydroxycyclohexyl)-2′-((1-((1-methyl-1H-pyrazol-4-yl)sulfonyl)piperidin-4-yl)amino)spiro[cyclopropane-1,5′-pyrrolo[2,3-d]pyrimidin]-6′(7′H)-one] came in with a half-inhibitory concentration (IC50) of at most 50 nM.

Turning to `C[C@@H](C1CC1)N1C(=O)C2(CC2)c2cnc(NC3CCN(S(=O)(=O)c4ncc[nH]4)CC3)nc21` [Example 14, (S)-2′-((1-((1H-imidazol-2-yl)sulfonyl)piperidin-4-yl)amino)-7′-(1-cyclopropylethyl)spiro[cyclopropane-1,5′-pyrrolo[2,3-d]pyrimidin]-6′(7′H)-one], the IC50 was at most 50 nM.

Molecule `O=C1N(c2cc3c(cc2Cl)CNCC3)c2nc(NC3CCN(S(=O)(=O)c4ncc[nH]4)CC3)ncc2C12CC2` [Example 18, 2′-((1-((1H-imidazol-2-yl)sulfonyl)piperidin-4-yl)amino)-7′-(7-chloro-1,2,3,4-tetrahydroisoquinolin-6-yl)spiro[cyclopropane-1,5′-pyrrolo[2,3-d]pyrimidin]-6′(7′H)-one] returned an IC50 of at most 50 nM.

`CCn1cnc(S(=O)(=O)N2CCC(Nc3ncc4c(n3)N(c3cc(F)ccc3Cl)C(=O)C43CC3)CC2)c1` [Example 19, 7′-(2-chloro-5-fluorophenyl)-2′-((1-((1-ethyl-1H-imidazol-4-yl)sulfonyl)piperidin-4-yl)amino)spiro[cyclopropane-1,5′-pyrrolo[2,3-d]pyrimidin]-6′(7′H)-one] showed a concentration for half-maximal inhibition (IC50) of at most 50 nM.

Broadly, the IC50 is the point on the concentration scale where inhibition reaches its midpoint. A higher IC50 goes with lower potency.
